Where “and” joins values, the source holds several entries; their conditions need not be identical. Identical values can stand only once.
Columns and labels:
glutathione-peroxidase = assay: In vivo effect of the additive on glutathione-peroxidase activity in plasma; set-up: species or system human
Description: In vivo effect to the additive according to the invention on the glutathione-peroxidase activity in plasma.
(§1) For three weeks a quantity of 3 microgrammes of Se in the form of the additive according to the invention was administered daily to a child suffering from Protein Lysine Intolerance (PLI).

[1] = Se content in plasma during supplementation; conditions: child with Protein Lysine Intolerance, additive 3 microgrammes Se daily for three weeks, selenite as second supplementation after 13 months, successive samples
Description: as §1

## O=[Se](O)O [selenite]
glutathione-peroxidase; child with PLI, during supplementation
  glutathione peroxidase activity in the plasma (change during supplementation, in words): no increase
glutathione-peroxidase; plasma, child with Protein Lysine Intolerance, additive 3 microgrammes Se daily for three weeks, selenite as second supplementation after 13 months, successive samples
  glutathione-peroxidase activity: 0.13 U/ml and 0.12 U/ml
[1]
  Se-content: 20 ng/mL and 22 ng/mL and 24 ng/mL and 23 ng/mL
